Like-named read-outs stand apart in the source and are kept apart here.
Legend:
[1] = test system: STAR reaction (Nt.BstNBI nicking endonuclease, Bst X DNA polymerase; Chlamydia trachomatis cryptic plasmid target)
Experimental: The STAR mixture contained two primers, polymerase, and nicking enzyme (referenced above). Reactions were performed in a final volume of 25 μl, including 1.0 μM of the forward primer, 0.5 μM of the reverse primer, 0.25 μM molecular beacon, 10 μl STAR Master Mix and 5 μl DNA sample. STAR master mix contained the following reagents; 12 mM MgSO4, 90 mM Tris-HCl (pH 8.5), 300 μM each dNTPs, 20 mM (NH4)2SO4, 15 mM Na2SO4, 2 mM. DTT, 0.01% Triton X-100, 15 U nicking endonuclease, 60 U polymerase. […] The temperature of the reactions was controlled, with a relatively high initiation temperature followed by a gradual drop over time, for optimal STAR activity. The initiation phase, primarily involving polymerase activity, was at the elevated temperature of 60° C. for 15 seconds. […] Amplification and STAR product detection were performed with the Agilent Mx3005P qPCR apparatus (Agilent).

[2] = test system: Nb.BbvCI nicking endonuclease; assay: Nicking Enzyme Activity Assay (NAA) with Nb.BbvCI under isothermal condition; type: biochemical; conditions: 40 ml RbCl (so in the source), 1x CutSmart Buffer, isothermal 50 °C; four replicates vs control
Experimental: The assay comprises use of the following oligonucleotide probe (DLPFQ) (SEQ ID NO: 10 5′/56-FAM/[…].[…]/3BHQ_1/-3′). The oligonucleotide forms a molecular beacon-like probe in solution. […] Upstream of the nicking enzyme binding site is a 5′ fluorophore.
The reactions are run using an isothermal temperature profile, 50° C. […] Each reaction assessed kinetics, enzyme performance, and signal fluorescence.

Bst X DNA polymerase = conditions: 15 mM Rb2SO4 vs no added rubidium; STAR temperature profile; six replicates
Excerpt: The NEF has a 5′ fluorophore, POQ has a 3′ quenching moiety that absorbs the photons released by the 5′ template oligo fluorophore. The PO serves as the initiation site for a strand displacement polymerase to extend and displace the quenching oligo allowing for fluorescence to be generated due to the quenching oligo no longer being in proximity to the template oligo.
The basic PAA mixture contains a template oligo (NEF) with a 5′-FAM modification, a priming oligo (PO) which anneals to the template's 3-end, a quenching oligo (POQ) with a 3′-BHQ1 modification which anneals to the template's 5′-end, and a polymerase (referenced above). The reactions were performed in a final volume of 25 μl, including 0.2 μM NEF, 0.3 μM PO, 0.7 μM POQ, and 1×PAA Master Mix. At a 1× concentration, the PAA master mix contained the following reagents; 12.5 mM MgSO4, 90 mM Tris-HCl (pH 8.5), 300 μM each dNTPs, 15 mM NH4CH3CO2, 15 mM Na2SO4, 5 mM DTT, 0.2 mg/ml BSA, 0.02% Triton X-100, 15 mM Rb2SO4, 10 mM L-Threonine, and 0.03 U/μl polymerase. […] The PAA was performed with the Agilent Mx3005P qPCR apparatus (Agilent). […] Each reaction assessed amplification kinetics, enzyme performance, and signal fluorescence.

[3] = test system: Nb.BsmI nicking endonuclease; conditions: 20 mM Rb2SO4 vs control; STAR temperature profile; average of six replicates
Excerpt: The modified NAA was run with and without rubidium using the following conditions.
The Nb.BsmI recognition sequence is GAATG_CN. (The underscore indicates the nick site). The oligonucleotide contains self-complementary sequences and forms a molecular beacon-like probe in solution. The probe has a nicking site for nicking endonuclease activity and a 3′ quencher. Upstream of the nicking binding site is a 5′ fluorophore. When in solution a complex is formed that completes a nicking binding site allowing for the nicking endonuclease to nick. Nb.BsmI is a bottom cutter and therefore will cut on the opposite strand of the nicking binding site. The oligonucleotide quencher 3′ of the nick site, following a nick by a nicking endonuclease, now has a low melting temperature. Because the reaction is performed above this melting temperature, the shortened fragment containing the quencher is released from the complex, generating fluorescence.
The basic NAA mixture contained the probe oligo (DLPFQ) with a 5′-FAM modification and a 3′-BHQ1 modification which folds on itself, and a nicking endonuclease (referenced above). […] The reactions were performed in a final volume of 25 μl, including different concentrations of DLPFQ depending on the nicking enzyme used, and 1×NAA Master Mix. […] Each reaction assessed kinetics, enzyme performance, and signal fluorescence.

[4] = test system: Nt.BstNBI nicking endonuclease; conditions: 15 mM Rb2SO4 vs no rubidium; STAR temperature profile; six replicates
Experimental: The template oligo has a nicking site for nicking endonuclease activity and downstream a 3′ quencher. The priming oligo has the complementary nicking site sequence and a 5′ fluorophore. When in solution the two form a complex that completes a nicking binding site allowing for the nicking endonuclease to cut. The oligonucleotide quencher 5′ of the nick site, following a nick by a nicking endonuclease, now has a low melting temperature. Because the reaction is performed above this melting temperature, the shortened fragment containing the quencher is released from the complex generating fluorescence.
The basic NAA mixture contained the template oligo (NEQ) with a 3′ modification, and the priming oligo (POF) with a 5′-FAM modification which anneals to the template, and a nicking endonuclease (referenced above). The reactions were performed in a final volume of 25 μl, including 1.3 μM NEQ, 1.6 μM POE, and 1×NAA Master Mix. At a 1× concentration, the NAA master mix contained the following reagents; 12.5 mM MgSO4, 90 mM Tris-HCl (pH 8.5), 15 mM NH4CH3CO2, 15 mM Na2SO4, 5 mM DTT, 0.2 mg/ml BSA, 0.02% Triton X-100, 15 mM Rb2SO4, 10 mM L-Threonine, and 0.008 U/μl nicking endonuclease. […] The NAA was performed with the Agilent Mx3005P qPCR apparatus (Agilent). […] Each reaction assessed amplification kinetics, enzyme performance, and signal fluorescence.

[5] = test system: isothermal amplification reaction (nicking endonuclease, polymerase; primers of Example 1)
Experimental: The basic mixture contains two primers, polymerase, and nicking enzyme (referenced above). […] The reactions were performed in a final volume of 25 μM, including 1.0 μM of the forward primer, 0.5 μM of the reverse primer, 0.25 μM molecular beacon, 10 μM Master Mix and 5 μl DNA sample. The master mix contained the following reagents; 12.5 mM MgSO4, 90 mM Tris-HCl (pH 8.5), 300 μM each dNTPs, 40 mM NH4OAc, 15 mM Na2SO4, 2 mM DTT, 0.01% Triton X-100, 15U nicking endonuclease, 60 U polymerase. […] Amplification and product detection were performed with the Agilent Mx3005P qPCR apparatus (Agilent).

CC(=O)[O-].[K+] [potassium acetate]
effect on STAR (ion replacement) ([1]; salts replaced in buffer, various concentrations): neither of which improved STAR

[Cl-].[Rb+] [rubidium chloride]
nicking enzyme activity (fluorescence) [2]: increases the activity of Nb.BbvCI nicking endonuclease

O=S(=O)([O-])[O-].[Rb+].[Rb+] [rubidium sulfate]
grouping of replicate sample results in STAR ([1]; 50 mM rubidium sulfate vs control group): more tightly grouped than with the control group | effect on STAR amplification ([1]; 50 mM rubidium sulfate vs no rubidium control): detrimental to amplification, slowing the reaction | effect on STAR reactions ([1]; 10 to 20 mM rubidium sulphate vs no rubidium control, 100 copies target): improved STAR reactions | polymerase activity (fluorescence) (Bst X DNA polymerase): does not change the activity of the polymerase in any significant manner | nicking enzyme activity (fluorescence) [3]: increases the activity of this other nicking endonuclease | nicking enzyme activity (fluorescence) [4]: significantly increased the activity of the nicking enzyme | performance of 10 copy isothermal reaction ([5]; 15 mM of rubidium sulfate (so in the source), compared with 100 copy reaction without rubidium sulfate): made the 10 copy reaction perform similar to the 100 copy reaction without rubidium sulfate | effect on isothermal amplification reaction ([5]; 20 mM rubidium sulfate vs without, 100 and 10 copies template, average of 4 replicates): improves the isothermal reaction | tightness of replicates in isothermal amplification ([5]; with vs without rubidium, data not shown): tighter than without rubidium

CC(=O)[O-].CC(=O)[O-].CC(=O)[O-].[Sc+3] [scandium acetate]
effect on STAR (ion replacement) ([1]; all concentrations): fully inhibited the reaction

CC(=O)[O-].CC(=O)[O-].[Sr+2] [strontium acetate]
effect on STAR (ion replacement) ([1]; 10 mM): possibly slightly slowed the reaction | effect on STAR (ion replacement) ([1]; 20 and 50 mM): fully inhibited the reaction

— US12480155B2, “Nicking enzymes” (LumiraDx UK Ltd., priority 2019, dated 2025)
